Broadly, the Papp is a coefficient for how fast a substance crosses the barrier.

Series [1] relates to Rat primary cortical neuron cultures. Kind of series: Protection from neurotoxicity in vitro (Cell Titer-Glo viability). The format is cell-based. The note with it: for Insult effect (% viability vs vehicle): 24 hours, with HGF 5 ng/ml; for Protection of cell viability, statistical significance vs. insult control: Positive Control (1 uM). How it is done: HGF/MET signaling activation is expected to protect cells, including neurons, from cell death. […] Hydrogen peroxide (H2O2) treatment produces toxic oxidative stress. Bacteria-derived lipopolysaccharide (LPS) treatment induces inflammatory cell death. Treatment with excess glutamate (Glut) produces excitotoxicity in neuron cultures. Treatment with 1-methyl-4-phenylpyridinium (MPP^+) causes cell death by inhibition of mitochondrial function.
Rat primary cortical neuron cultures were grown at 37° C., 5% CO2 in Complete Neurobasal Medium supplemented with B27/GDNF/BDNF containing 10% FBS until maturity and were then seeded in 384-well plate at 5,000 cells/well. Cultures were then treated for 15 minutes with 1 uM, 100 nM, 10 nM, 1 nM, or 0.1 nM of compound 1a. Cells were then subjected to individual conditional insults for 24 hours at the following concentrations: H2O2 at 1 uM, LPS at 1 uM, glutamate at 25 uM, MPP+ at 500 uM. All treatments contained recombinant human HGF (R&D Systems) at a concentration of 5 ng/ml.
To quantify neuroprotection, cell viability was measured with the Cell Titer-Glo Luminescent Cell Viability Assay (Promega, Cat #G7571). Data was normalized to DMSO+HGF control set at 100% cell viability. Statistical analyses for each group (n=4) were performed using one-way ANOVA with Tukey's Multiple comparison test.
Data is reported as statistical significance vs. insult control, with NS=not significant, +=p<0.05, ++=p<0.01, and +++=p<0.001.
(In ATP-based viability assays light output follows the ATP content of the culture.)

Series [2] in a line: Parallel artificial membrane permeability assay (PAMPA). The format is in vitro ADME. The note with it: PBS, room temperature for 5 hours, 200 uM in donor well. How it is done:
Bioavailable drugs must permeate the cellular membranes of the lining of the digestive tract. To estimate the penetrability of exemplary compounds, the in vitro parallel artificial membrane permeability assay (PAMPA) was utilized.
Test compounds must have a standard curve in the final read plate to determine partitioned concentration of each drug. A 6-point standard curve was prepared for each compound from 0 to 200 μM in phosphate-buffered saline (PBS).
Test compound solution (300 μL in PBS) was added to the donor (bottom) well of the PAMPA plate in 5 replicates and PBS vehicle (200 μL) was added to the acceptor (top) wells of appropriate wells to match the loading of the donor plate. The bottom and top of the PAMPA plates were then sandwiched together. The PAMPA plates were then incubated at room temperature for 5 hours. After incubation, 150 μL of donor solution was added to a UV compatible plate containing the corresponding standard curve. 150 μL of acceptor well solution was added adjacent to the corresponding standard curve and donor well samples for that compound. The plate was then read using a UV plate reader.
Permeability and membrane retention were then calculated based on the following formulas:
where: • A=filter area (0.3 cm^2); • VD=donor well volume (0.3 mL); • VA=acceptor well volume (0.2 mL); • t=incubation time (seconds); • CA(t)=compound concentration in acceptor well at time t; • CD(t)=compound concentration in donor well at time t; and
where: • CD(t), VD, CA(t), and VA are as defined for equation 1, and • C0=initial concentration in donor well (200 uM).

Series [3] concerns hepatocyte (HepG2) cell cultures. Kind of series: Cytotoxicity assay (LDH release). It is filed as cell-based. The note with it: HepG2 cells, 48 hours, 0.1 to 100 μM. How it is done: This experiment was designed to obtain a preliminary assessment of cytotoxicity.
HepG2 cells were plated in 96-well cell culture plates and allowed to attach overnight at 37° C., 5% CO2 in EMEM+10% FBS. Treatments were made in complete media (EMEM+10% FBS) and included a dilution series of test compounds from 0.1 to 100 μM. Known cytotoxin cerivastatin was used as a positive assay control and prepared at a final concentration of 0.5 μM.
Growth media was replaced with treatment media (EMEM+10% FBS containing test compound dissolved in DMSO) and cells were incubated with test compounds for 48 hours. At the end of the incubation period, supernatant media from each well was transferred to a new plate and LDH assay working solution was added. LDH assay solution undergoes a colorimetric reaction in proportion to the amount of lactate dehydrogenase (an intracellular protein that was only found in the media in the presence of lysed cells) in the media. Color reaction was quantified by measurement of absorbance at a wavelength of 490 nm.
The signal range of the assay was determined by no manipulation in a negative control treatment and full lysis of all cells in a lysis control sample. Compounds that increase the level of cytotoxicity more than 20% above negative control samples were considered cytotoxic in this assay.
(In general: LDH in the medium is a marker of cell lysis.)

Series [4] relates to HGF/MET system. In words: Phospho-MET ELISA. The format is cell-based. On the set-up: key: − indicates that the compound failed to significantly augment MET phosphorylation; + indicates maximum potency at or above 100 nM; ++ indicates maximum potency at or above 10 nM; +++ indicates maximum potency at or above 1 nM; ++++ indicates maximum potency at or above 0.1 nM. The note with it: HEK293 cells; with 1 ng/mL recombinant HGF; 15 minutes; augmentation of MET phosphorylation (pMET ELISA). Here is the method:
Compounds were screened for potency towards the HGF/MET system using phospho-MET (pMET) ELISA kits (Cell Signaling). pMET levels were detected in samples having low (1 ng/mL) and high (10 ng/mL) concentrations of HGF.
HEK293 cells were prepared by passage into 6-well multi-plates and grown at 37° C. at 5% CO2 in DMEM+10% FBS until approximately 90% confluent. Cells were then starved for at least 8 hours in serum-free growth media.
Exemplary compounds were prepared in DMEM+0.1% FBS, diluted and added to treatment media with 1 ng/mL recombinant HGF protein (R&D Systems). Cells were incubated in triplicate at 37° C. and 5% CO2 for 15 minutes. Samples were then treated with 180 μL ice-cold RIPA (radioimmunoprecipitation assay) buffer and cells were lysed on ice for 15 minutes. Lysates were cleared by centrifugation at 16,000-g for 15 minutes and the supernatant was retained. Samples were normalized using a BCA assay of lysates to determine protein concentrations across the samples.
Between 50 and 100 μg total protein lysate was loaded into ELISA wells in pMET Sandwich ELISA kit (Cell Signaling Catalog #7227C), ensuring equal protein load in each well. The ELISA was processed according to manufacturer's instructions. After color developed, absorbance was read on an optical plate reader at 450 nm.
Potency measurements were determined using peak efficacy by scaling test compound dose treatments along a scale of 1-10 between 1 ng/mL and 10 ng/mL HGF doses according to the following formula: […]
where y is the normalized data-point, x is the raw data point, A is the mean HGF at 1 ng/mL, and B is the mean HGF at 10 ng/mL.

Series [5] deals with MDCK cells. In words: Cell scattering behavior assay. It is filed as cell-based. On the set-up: key: − indicates that the compound failed to significantly promote cell scattering behavior; + indicates maximum potency at or above 100 nM; ++ indicates maximum potency at or above 10 nM; +++ indicates maximum potency at or above 1 nM; ++++ indicates maximum potency at or above 0.1 nM. The note with it: with 5 ng/mL HGF, 24 hours, normalized particle count compared to HGF treatment alone. How it is done: MDCK cells were grown under normal conditions and observed to spontaneously form tight colonies as they proliferate. MDCK cells respond to HGF treatment by moving away from each other (scattering), which is quantified to assess the amount of HGF/MET activation in the cell population. In this experiment, MDCK cells were plated in a 96-well format, treated with HGF and exemplary compounds, fluorescently stained, imaged in large fields, and scattering behavior was quantified. Quantification was determined by analyzing the number of continuous groups of cells compared to the total stained area imaged (normalized particle counts).
MDCK cells were plated at low density in black-walled imaging plates and allowed to attach overnight at 37° C. and 5% CO2 in DMEM+10% FBS. Cells were then starved to 2 hours in DMEM without FBS (“starve media”). Samples containing exemplary compounds were prepared in DMEM without FBS and included 5 ng/mL HGF protein (“treatment media”). A control curve was also prepared for each plate using HGF concentrations of 0, 5, 10, and 20 ng/mL. Starve media was replaced with treatment media and cells were incubated for 24 hours at 37° C. and 5% CO2.
After incubation, cells were fixed by replacing treatment media with cold ethanol and incubating for 20 minutes at 4° C. Cells were then rehydrated by washing with PBS and then with stain solution (fluorescent wheat germ agglutinin; WGA488 at 20 μg/mL in PBS). Cells were incubated with stain solution 30 minutes at room temperature after which stain solution was replaced with fresh PBS.
Fields of cells were imaged using an iCyte high content imager in the green wavelength. Images were converted to binary and analyzed for particle size and particle count. For the purpose of analysis, an individual cell touching no other cells or separated colonies of cells were identified as particles, and particle counts were normalized by the total signal area to account for differences in cell number. […] Compound potency was assessed by statistical increase in normalized particle count compared to HGF treatment alone.

The test system of series [6] is scopolamine-induced cognitive impairment. Kind of series: Scopolamine-induced cognitive impairment, T-maze spontaneous alternation task. It is filed as in vivo, CD-1 mice. The note with it: mice; scopolamine only, 0.89 mg/kg. The text has this:
Mild cognitive impairment can be assessed in rodent models via delivery of various compounds that interfere with normal neurotransmitter signaling. Scopolamine is a compound that is well-known to antagonize muscarinic acetylcholine receptors, nicotinic receptors, as well as glutamatergic receptors such as NMDA receptors. Thus, delivery of scopolamine results in cognitive impairment, which can be assessed in a variety of cognitive tasks. Positive modulation of the HGF/MET system can promote NMDA receptor activation and results in pro-cognitive effects. Two test compounds, Compound 1a and Compound 5a, were evaluated for their ability to protect against scopolamine-induced cognitive impairment.
In this study, mild cognitive impairment was modeled in otherwise healthy male CD-1 mice (4-5 weeks old at study start) by acute delivery of 0.89 mg/kg scopolamine (dissolved in saline). Test compounds were administered via oral gavage 0.5 hours prior to scopolamine exposure, and cognitive performance was assessed in the T-maze spontaneous alternation task 0.5 hours after scopolamine exposure (1 hour following test compound exposure). The experimental protocol consisted of one single session, which started with 1 “forced-choice” trial, followed by 14 “free-choice” trials. In the first “forced-choice” trial, the animal was confined 5 seconds in the start arm and was then released while either the left or right goal arm was blocked by a horizontal door. After the mouse entered the open goal arm and returned to the start position, the left or right goal door was opened, and the animal was allowed to choose freely between the left and right goal arm (“free choice trials”). The animal was considered to have entered into an arm when it placed its four paws in the arm. Normal animals will choose to explore the previously-unexplored arm, which is recorded as a spontaneous alternation. […] The session was terminated, and the animal was removed from the maze as soon as 14 free-choice trials had been performed or 10 min had elapsed, whichever event occurred first.
This percentage was defined as entry into a different goal arm of the T maze over successive trials (e.g., left-right-left-right) and was calculated using the formula: (% alternations=Number of Alternations/14*100). Both compounds attenuated the degree of scopolamine-induced cognitive impairment, as indicated by increased percent of spontaneous alternations compared to scopolamine-only controls. Statistical analysis was accomplished via 1-way ANOVA with Dunnet's multiple comparisons post-test.

As for `C[n+]1ccc(-c2ccccc2)cc1` [MPP+, 1-methyl-4-phenylpyridinium, reference compound], in series [1] (500 uM), the “Insult effect (% viability vs vehicle)” value amounted to 49.85%.
With `C[C@]12N[C@H](Cc3ccccc31)c1ccccc12` [MK-801, reference compound], the “Protection of cell viability, statistical significance vs. insult control” value in series [1] (insult Glutamate (25 uM) 24 hours), in series [1] (insult H2O2 (1 uM) 24 hours), in series [1] (insult LPS (1 uM) 24 hours) and in series [1] (insult MPP+ (500 uM) 24 hours) was “+++ (+++=p<0.001)” throughout.
In series [2], `CCC(C)CN1CC2N(C(=O)c3ccc(O)nc3)CCC(=O)N2[C@@H](C)C1=O` (some centres unmarked) [Compound 4a] showed a Papp at 5 h, 200 uM of over 10 ×10⁻⁶ cm/s. Further, in series [3], the Cytotoxicity result is recorded as “++++ (++++ indicates non-toxic at 100 μM)”. In addition, the Potency entry in series [4] and in series [5] was “+ (+ indicates maximum potency at or above 100 nM)” in each case.
Regarding `OO` [Compound H2O2, Hydrogen peroxide, reference compound], the “Insult effect (% viability vs vehicle)” value in series [1] (1 uM) came out at 64.23%.
Take `CCC(C)CN1CC2N(Cc3ccc(OC(F)F)cc3)CCC(=O)N2C(CC(C)C)C1=O` (centres unmarked) [Compound 53, 1-(4-(difluoromethoxy)benzyl)-6-isobutyl-8-(2-methylbutyl)hexahydro-4H-pyrazino[1,2-a]pyrimidine-4,7(6H)-dione]: the Papp at 5 h, 200 uM in series [2] was under 2 ×10⁻⁶ cm/s. Further, in series [3], the Cytotoxicity entry was “+++ (+++ indicates non-toxic at 10 μM)”. In addition, the results for the Potency result in series [4] and in series [5] were “++ (++ indicates maximum potency at or above 10 nM)” and “+++ (+++ indicates maximum potency at or above 1 nM)”, respectively.
For `CC1C(=O)N(CCC2CCCC2)CC2N(Cc3ccc(C(F)(F)F)c(Cl)c3)CCC(=O)N12` (centres unmarked) [Compound 54] the same measures were under 2 ×10⁻⁶ cm/s, “+++ (+++ indicates non-toxic at 10 μM)”, “−” and “−”.
In the case of `CN1[C@@H]2C[C@@H](OC(=O)[C@H](CO)c3ccccc3)C[C@H]1[C@@H]1O[C@@H]12` [SCO, scopolamine, reference compound], in series [6], the Spontaneous alternations % turned out to be 37%.
As to `N[C@@H](CCC(=O)O)C(=O)O` [Glutamate, glutamate, reference compound], the “Insult effect (% viability vs vehicle)” value in series [1] (25 uM) stood at 49.55%.

For the origin of these results see US20250041307A1, “Uses of Bicyclic Compounds for the Treatment of Diseases” (Athira Pharma, Inc., priority 2021, published 2025).
